Literature values as cited in publication PMC5306496 (British Journal of Clinical Pharmacology, 2016).
Where two headings read alike, the source gives them in different places.

How the values were obtained:
[1] = CVVHDF
[2] = not given; remark: listed apart in the source
[3] = not given; remark: listed apart in the source
[4] = patients with SAB/RIE and CrCl > 30 ml min^−1, 6 mg kg^−1 once daily

In the case of daptomycin, the C max ([1]; 4 mg kg^−1/day, n = 4, range) is listed as 24700 to 69700 ng/mL, the C min ([1]; 4 mg kg^−1/day, n = 4, range) is listed as 2700 to 11900 ng/mL and the C max ([1]; 5 mg kg^−1/day, n = 2, range) is listed as 34700 to 35700 ng/mL. The C min ([1]; 5 mg kg^−1/day, n = 2, range) was 3000 to 3700 ng/mL, the C max ([1]; 6 mg kg^−1/day, n = 2, range) was 20500 to 61700 ng/mL and the C min ([1]; 6 mg kg^−1/day, n = 2, range) was 1500 to 15900 ng/mL. The “clearance by CRRT as share of the total drug clearance” value was 40–50%, the PK linearity (once‐daily doses of 6–12 mg kg^−1) was “linear PK profile” and the “amount of drug cleared by the kidneys” value (patients with normal renal function) was 34–54%. For the same substance, the “C min that may be associated with elevated creatine phosphokinase (CPK)” value ([2]; additional safety threshold) was > 24300 ng/mL, the “safety threshold C max” value ([2]; healthy volunteers with normal renal function, 12 mg kg^−1 Q24 h) was 197000 ng/mL and the “efficacy exposure reference AUC0–24h” value [2, 4] was 465 to 761 µg·h/mL. For the same substance, the “efficacy exposure reference C max” value [2, 4] was 66000 to 112000 ng/mL, the CL ([3]; base model without CRRT patients, not-on-dialysis) was 11.4 mL/h/kg and the CL ([3]; base model without CRRT patients, not-on-dialysis, at 70 kg) was 0.80 L/h. For the same substance, the CL ([3]; base model, CAPD) was 2.98 mL/h/kg and the CL ([3]; base model, HD) was 3.43 mL/h/kg.
